Experimental data published in patent publication US7759389B2, “Chroman derivatives and uses thereof” (Roche Palo Alto LLC, priority 2004, dated 2010).
Structures can show the parent of a compound that is named as a salt.

Key:
[1] = target: T1, recombinant human 5-HT2A receptor (Homo sapiens, UniProt P28223); assay: Radioligand binding, competition for [3H]Ketanserin in CHO-K1 cell membranes; conditions: [3H]Ketanserin displacement, pH 7.4, 32° C., 60 min, read-out: pKi for 5-HT2A (converted)
T1 construct: expressed in transfected cells; host or cells: CHO-K1
T1 sequence (P28223 whole entry): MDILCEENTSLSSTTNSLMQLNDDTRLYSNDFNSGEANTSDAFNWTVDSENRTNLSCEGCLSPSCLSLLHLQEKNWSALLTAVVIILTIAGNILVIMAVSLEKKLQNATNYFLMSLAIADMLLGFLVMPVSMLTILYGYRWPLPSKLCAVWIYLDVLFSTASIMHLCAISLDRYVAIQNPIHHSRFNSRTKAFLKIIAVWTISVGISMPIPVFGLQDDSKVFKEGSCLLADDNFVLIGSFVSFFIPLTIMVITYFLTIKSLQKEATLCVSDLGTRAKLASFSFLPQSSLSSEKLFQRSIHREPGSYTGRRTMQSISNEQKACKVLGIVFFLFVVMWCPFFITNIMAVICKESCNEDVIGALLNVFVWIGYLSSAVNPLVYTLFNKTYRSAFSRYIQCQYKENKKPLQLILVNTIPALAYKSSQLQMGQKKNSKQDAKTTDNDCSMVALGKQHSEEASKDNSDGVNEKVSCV
Method: (§1) The binding activity of compounds of this invention in vitro was determined as follows. Duplicate determinations of 5-HT6 ligand affinity were made by competing for binding of [^3H]LSD in cell membranes derived from HEK293 cells stably expressing recombinant human 5-HT6 receptor. Duplicate determinations of 5-HT2A ligand affinity were made by competing for binding of [^3H]Ketanserin (3-(2-(4-(4-fluorobenzoyl)piperidinol)ethyl)-2,4(1H,3H)-quinazolinedione) in cell membranes derived from CHO-K1 cells stably expressing recombinant human 5-HT2A receptor. Membranes were prepared from HEK 293 cell lines by the method described by Monsma et al., Molecular Pharmacology, Vol. 43 pp. 320-327 (1993), and from CHO-K1 cell lines as described by Bonhaus et al., Br J Pharmacol. June; 115(4):622-8 (1995).
(§2) For estimation of affinity at the 5-HT6 receptor, all determinations were made in assay buffer containing 50 mM Tris-HCl, 10 mM MgSO4, 0.5 mM EDTA, 1 mM ascorbic acid, pH 7.4 at 37° C., in a 250 microliter reaction volume. […]
(§3) Assay tubes containing [^3H] […] LSD or [^3H]Ketanserin were determined as radioactive counts per minute using Packard TopCount.
(§4) Displacement of [^3H]LSD or [^3H]Ketanserin from the binding sites was quantified by fitting concentration-binding data to a 4-parameter logistic equation: […]

[2] = target: T2, recombinant human 5-HT6 receptor (Homo sapiens, UniProt P50406); assay: Radioligand binding, competition for [3H]LSD in HEK293 cell membranes; conditions: [3H]LSD displacement, pH 7.4, 37° C., 75 min, read-out: pKi for 5-HT6 (converted)
T2 construct: expressed in transfected cells; host or cells: HEK293
T2 sequence (P50406 whole entry): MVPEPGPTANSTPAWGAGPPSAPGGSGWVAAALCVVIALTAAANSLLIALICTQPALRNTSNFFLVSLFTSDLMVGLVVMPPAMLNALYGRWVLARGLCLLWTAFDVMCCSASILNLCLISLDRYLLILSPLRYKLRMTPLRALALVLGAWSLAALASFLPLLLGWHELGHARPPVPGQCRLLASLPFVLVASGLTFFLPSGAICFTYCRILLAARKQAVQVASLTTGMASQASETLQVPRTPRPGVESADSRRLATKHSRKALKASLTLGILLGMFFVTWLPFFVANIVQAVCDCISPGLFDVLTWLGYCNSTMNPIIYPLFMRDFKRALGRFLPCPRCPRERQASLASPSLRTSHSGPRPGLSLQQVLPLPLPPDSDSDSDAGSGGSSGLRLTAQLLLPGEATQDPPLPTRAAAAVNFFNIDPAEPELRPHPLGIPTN
Method: as §1, §2, §3, §4

Q: For `CNCC1CCOc2cc(S(=O)(=O)c3ccccc3)ccc21` (stereo not drawn) (as salt: HCl), which melting point is on record?
A: 158.1 to 159.8 °C

Q: For `NCC1CCOc2cc(S(=O)(=O)c3ccccc3)ccc21` (stereo not drawn) [C-(7-Benzenesulfonyl-chroman-4-yl)-methylamine], which Ki [1] is on record?
A: ~20.4 nM

Q: And the Ki [2]?
A: ~0.724 nM
